Test results: the kinase profiling compilation of Christmann-Franck et al. (2016)

How the values were obtained:
Assay in all cases: radiometric filter-binding kinase assay, Kinase HotSpot
Details in all cases: compound 0.5 µM; ATP 10 µM
ACVR1 (human) = ACVR1 (human) (UniProt Q04771)
ACVR1B (human) = ACVR1B (human) (UniProt P36896)
AKT3 (human) = AKT3 (human) (UniProt Q9Y243)
AURKB (human) = AURKB (human) (UniProt Q96GD4)
CAMK1 (human) = CAMK1 (human) (UniProt Q14012)
CAMKK2 (human) = CAMKK2 (human) (UniProt Q96RR4)
CSF1R (human) = CSF1R (human) (UniProt P07333)
CSNK1A1 (human) = CSNK1A1 (human) (UniProt P48729)
Sequence of CSNK1A1 (human) (P48729 whole entry, looked up): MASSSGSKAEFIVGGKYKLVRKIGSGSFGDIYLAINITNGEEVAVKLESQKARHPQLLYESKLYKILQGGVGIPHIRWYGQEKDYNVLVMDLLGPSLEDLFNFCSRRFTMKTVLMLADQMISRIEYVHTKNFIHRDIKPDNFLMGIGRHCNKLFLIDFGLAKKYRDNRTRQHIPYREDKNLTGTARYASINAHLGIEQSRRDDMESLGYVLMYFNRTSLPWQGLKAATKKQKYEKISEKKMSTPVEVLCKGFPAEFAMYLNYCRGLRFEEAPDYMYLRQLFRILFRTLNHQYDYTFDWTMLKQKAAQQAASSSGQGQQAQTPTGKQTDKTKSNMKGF

DYRK3 (human) = DYRK3 (human) (UniProt O43781)
DYRK4 (human) = DYRK4 (human) (UniProt Q9NR20)
ERBB2 (human) = ERBB2 (human) (UniProt P04626)
ERBB4 (human) = ERBB4 (human) (UniProt Q15303)
FGFR2 (human) = FGFR2 (human) (UniProt P21802)
HIPK2 (human) = HIPK2 (human) (UniProt Q9H2X6)
JAK3 JH1 JH2 (human) = JAK3 JH1 JH2 (human) (UniProt P52333)
LCK (human) = LCK (human) (UniProt P06239)
MAP2K1 (human) = MAP2K1 (human) (UniProt Q02750)
MAP3K11 (human) = MAP3K11 (human) (UniProt Q16584)
MAP3K2 (human) = MAP3K2 (human) (UniProt Q9Y2U5)
Sequence of MAP3K2 (human) (Q9Y2U5 whole entry, looked up): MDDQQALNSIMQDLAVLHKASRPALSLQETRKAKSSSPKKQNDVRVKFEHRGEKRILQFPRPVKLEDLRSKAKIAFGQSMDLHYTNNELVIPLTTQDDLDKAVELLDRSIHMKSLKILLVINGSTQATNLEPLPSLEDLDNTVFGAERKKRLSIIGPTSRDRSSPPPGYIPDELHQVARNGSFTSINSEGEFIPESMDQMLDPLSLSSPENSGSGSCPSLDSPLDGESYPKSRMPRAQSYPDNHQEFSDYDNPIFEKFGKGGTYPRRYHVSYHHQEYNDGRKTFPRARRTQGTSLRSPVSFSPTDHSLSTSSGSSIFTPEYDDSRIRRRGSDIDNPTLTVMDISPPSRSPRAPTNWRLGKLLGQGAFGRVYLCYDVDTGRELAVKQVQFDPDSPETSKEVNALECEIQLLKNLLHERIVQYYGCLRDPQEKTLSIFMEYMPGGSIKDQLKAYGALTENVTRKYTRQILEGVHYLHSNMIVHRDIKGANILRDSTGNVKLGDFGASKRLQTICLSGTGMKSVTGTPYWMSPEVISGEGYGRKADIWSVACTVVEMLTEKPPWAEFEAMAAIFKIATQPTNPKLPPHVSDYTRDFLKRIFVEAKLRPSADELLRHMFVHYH

MARK4 (human) = MARK4 (human) (UniProt Q96L34)
MATK (human) = MATK (human) (UniProt P42679)
MELK (human) = MELK (human) (UniProt Q14680)
MERTK (human) = MERTK (human) (UniProt Q12866)
NEK1 (human) = NEK1 (human) (UniProt Q96PY6)
NEK9 (human) = NEK9 (human) (UniProt Q8TD19)
NTRK1 (human) = NTRK1 (human) (UniProt P04629)
Sequence of NTRK1 (human) (P04629 whole entry, looked up): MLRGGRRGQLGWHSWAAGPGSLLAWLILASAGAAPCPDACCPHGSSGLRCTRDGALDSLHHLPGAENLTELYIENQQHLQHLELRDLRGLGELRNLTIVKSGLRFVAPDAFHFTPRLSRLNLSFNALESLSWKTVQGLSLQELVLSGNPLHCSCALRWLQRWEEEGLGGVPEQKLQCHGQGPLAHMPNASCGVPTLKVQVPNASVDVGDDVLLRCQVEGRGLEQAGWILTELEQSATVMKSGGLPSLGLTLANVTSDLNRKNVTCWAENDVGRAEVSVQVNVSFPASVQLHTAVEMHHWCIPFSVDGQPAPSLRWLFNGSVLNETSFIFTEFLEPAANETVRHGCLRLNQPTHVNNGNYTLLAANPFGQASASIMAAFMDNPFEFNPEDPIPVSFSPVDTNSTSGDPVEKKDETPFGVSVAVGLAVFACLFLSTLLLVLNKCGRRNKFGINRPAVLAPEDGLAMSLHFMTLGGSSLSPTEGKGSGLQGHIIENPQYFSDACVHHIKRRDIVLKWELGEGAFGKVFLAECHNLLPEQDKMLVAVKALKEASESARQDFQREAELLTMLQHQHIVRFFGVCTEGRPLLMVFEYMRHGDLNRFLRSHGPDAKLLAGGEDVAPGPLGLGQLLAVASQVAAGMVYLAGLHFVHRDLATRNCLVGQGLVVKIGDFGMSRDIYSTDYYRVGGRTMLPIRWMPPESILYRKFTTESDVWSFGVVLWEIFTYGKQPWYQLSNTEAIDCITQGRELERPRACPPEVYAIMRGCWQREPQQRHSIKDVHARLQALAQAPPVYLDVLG

PAK1 (human) = PAK1 (human) (UniProt Q13153)
PHKG2 (human) = PHKG2 (human) (UniProt P15735)
Sequence of PHKG2 (human) (P15735 whole entry, looked up): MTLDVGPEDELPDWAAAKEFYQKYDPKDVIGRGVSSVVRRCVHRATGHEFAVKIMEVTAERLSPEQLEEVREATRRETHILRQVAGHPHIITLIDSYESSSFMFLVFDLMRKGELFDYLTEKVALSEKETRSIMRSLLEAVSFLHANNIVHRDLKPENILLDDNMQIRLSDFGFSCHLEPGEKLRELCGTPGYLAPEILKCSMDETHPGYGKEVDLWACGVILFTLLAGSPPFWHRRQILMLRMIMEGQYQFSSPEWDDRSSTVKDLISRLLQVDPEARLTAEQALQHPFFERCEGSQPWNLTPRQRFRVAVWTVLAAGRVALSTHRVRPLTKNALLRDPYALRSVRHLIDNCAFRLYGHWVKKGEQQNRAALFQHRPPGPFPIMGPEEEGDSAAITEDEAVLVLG

PKN2 (human) = PKN2 (human) (UniProt Q16513)
Sequence of PKN2 (human) (Q16513 whole entry, looked up): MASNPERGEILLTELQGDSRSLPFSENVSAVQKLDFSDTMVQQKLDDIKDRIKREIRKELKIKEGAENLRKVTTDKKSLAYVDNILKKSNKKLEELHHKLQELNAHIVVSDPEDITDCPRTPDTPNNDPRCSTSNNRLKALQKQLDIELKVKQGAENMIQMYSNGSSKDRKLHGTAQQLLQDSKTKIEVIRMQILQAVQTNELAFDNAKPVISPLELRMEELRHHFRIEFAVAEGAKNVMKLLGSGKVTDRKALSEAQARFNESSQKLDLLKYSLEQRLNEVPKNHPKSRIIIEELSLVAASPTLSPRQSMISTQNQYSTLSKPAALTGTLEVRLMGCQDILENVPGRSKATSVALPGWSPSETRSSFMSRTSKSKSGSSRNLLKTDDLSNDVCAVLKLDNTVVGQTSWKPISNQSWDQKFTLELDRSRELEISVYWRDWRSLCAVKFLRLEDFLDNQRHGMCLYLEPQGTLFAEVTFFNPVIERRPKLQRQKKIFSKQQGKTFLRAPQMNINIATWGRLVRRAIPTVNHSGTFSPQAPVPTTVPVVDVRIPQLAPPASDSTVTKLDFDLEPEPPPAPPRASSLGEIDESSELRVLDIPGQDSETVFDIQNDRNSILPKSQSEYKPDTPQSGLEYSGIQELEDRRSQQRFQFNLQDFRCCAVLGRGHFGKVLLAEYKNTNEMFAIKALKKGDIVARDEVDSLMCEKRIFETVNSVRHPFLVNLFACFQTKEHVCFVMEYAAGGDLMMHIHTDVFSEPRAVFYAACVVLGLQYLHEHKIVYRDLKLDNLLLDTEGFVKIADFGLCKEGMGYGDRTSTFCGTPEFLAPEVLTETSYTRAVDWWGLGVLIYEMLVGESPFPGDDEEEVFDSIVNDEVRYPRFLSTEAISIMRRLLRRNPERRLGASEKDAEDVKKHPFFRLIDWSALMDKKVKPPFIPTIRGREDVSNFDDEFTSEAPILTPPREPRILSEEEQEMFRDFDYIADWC

PRKCZ (human) = PRKCZ (human) (UniProt Q05513)
PTK2B (human) = PTK2B (human) (UniProt Q14289)
PTK6 (human) = PTK6 (human) (UniProt Q13882)
RIPK2 (human) = RIPK2 (human) (UniProt O43353)
Sequence of RIPK2 (human) (O43353 whole entry, looked up): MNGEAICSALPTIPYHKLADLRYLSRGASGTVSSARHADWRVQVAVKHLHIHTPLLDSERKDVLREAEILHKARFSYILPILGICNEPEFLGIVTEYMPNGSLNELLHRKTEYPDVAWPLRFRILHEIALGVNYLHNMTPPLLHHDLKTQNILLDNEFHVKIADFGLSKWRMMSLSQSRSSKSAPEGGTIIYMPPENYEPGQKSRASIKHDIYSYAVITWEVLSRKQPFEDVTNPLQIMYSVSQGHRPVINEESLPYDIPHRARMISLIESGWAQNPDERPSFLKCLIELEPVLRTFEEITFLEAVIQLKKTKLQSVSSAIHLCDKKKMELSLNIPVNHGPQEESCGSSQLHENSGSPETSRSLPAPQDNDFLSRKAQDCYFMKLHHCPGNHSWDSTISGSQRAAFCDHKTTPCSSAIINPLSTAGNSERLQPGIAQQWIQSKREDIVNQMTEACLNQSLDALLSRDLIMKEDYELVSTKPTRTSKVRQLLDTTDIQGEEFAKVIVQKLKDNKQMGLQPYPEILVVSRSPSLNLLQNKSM

ROCK1 (human) = ROCK1 (human) (UniProt Q13464)
RPS6KA6 KD1 KD2 (human) = RPS6KA6 KD1 KD2 (human) (UniProt Q9UK32)
SGK3 (human) = SGK3 (human) (UniProt Q96BR1)
SRMS (human) = SRMS (human) (UniProt Q9H3Y6)
Sequence of SRMS (human) (Q9H3Y6 whole entry, looked up): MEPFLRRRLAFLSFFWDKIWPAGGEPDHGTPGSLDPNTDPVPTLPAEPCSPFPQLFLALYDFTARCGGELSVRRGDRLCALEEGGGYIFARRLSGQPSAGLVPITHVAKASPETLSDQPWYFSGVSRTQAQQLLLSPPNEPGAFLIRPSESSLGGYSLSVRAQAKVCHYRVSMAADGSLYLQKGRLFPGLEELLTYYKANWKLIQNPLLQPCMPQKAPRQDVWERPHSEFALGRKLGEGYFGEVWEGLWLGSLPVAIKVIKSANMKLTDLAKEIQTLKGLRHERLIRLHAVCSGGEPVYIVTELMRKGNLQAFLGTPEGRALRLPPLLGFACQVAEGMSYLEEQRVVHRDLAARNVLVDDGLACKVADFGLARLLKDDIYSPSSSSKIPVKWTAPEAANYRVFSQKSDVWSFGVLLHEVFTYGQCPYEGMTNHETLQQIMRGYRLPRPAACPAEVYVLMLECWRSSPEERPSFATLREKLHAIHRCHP

STK3 (human) = STK3 (human) (UniProt Q13188)
TEK (human) = TEK (human) (UniProt Q02763)
TGFBR2 (human) = TGFBR2 (human) (UniProt P37173)
Sequence of TGFBR2 (human) (P37173 whole entry, looked up): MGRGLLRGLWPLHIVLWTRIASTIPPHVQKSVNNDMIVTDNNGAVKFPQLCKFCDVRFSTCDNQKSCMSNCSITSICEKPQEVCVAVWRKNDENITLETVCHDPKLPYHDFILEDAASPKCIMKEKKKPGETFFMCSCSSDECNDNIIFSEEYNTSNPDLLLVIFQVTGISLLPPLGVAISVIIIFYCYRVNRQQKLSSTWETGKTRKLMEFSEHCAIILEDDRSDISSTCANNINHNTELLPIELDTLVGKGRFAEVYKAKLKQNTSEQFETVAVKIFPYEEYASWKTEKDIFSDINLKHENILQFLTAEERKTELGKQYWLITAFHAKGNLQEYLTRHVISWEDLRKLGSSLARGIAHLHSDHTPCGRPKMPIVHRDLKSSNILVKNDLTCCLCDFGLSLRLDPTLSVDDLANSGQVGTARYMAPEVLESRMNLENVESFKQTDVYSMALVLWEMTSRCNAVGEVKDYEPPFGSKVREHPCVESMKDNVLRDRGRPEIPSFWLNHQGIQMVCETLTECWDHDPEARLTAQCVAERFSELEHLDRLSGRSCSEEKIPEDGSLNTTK

TXK (human) = TXK (human) (UniProt P42681)
WNK3 (human) = WNK3 (human) (UniProt Q9BYP7)

`O=C1Nc2ccccc2/C1=C\c1c(Cl)[nH]c2ccccc12` was tested. Which residual activity (ACVR1 (human)) did it give?
The residual activity was 100%.

And the residual activity (ACVR1B (human))?
The residual activity was 105%.

What about the residual activity (AKT3 (human)) of the same compound?
Its residual activity is 93.6%.

And the residual activity (AURKB (human))?
The residual activity was 97.9%.

And the residual activity (CAMK1 (human))?
Its residual activity is 106%.

And the residual activity (CAMKK2 (human))?
The residual activity was 97.8%.

What about the residual activity (CSF1R (human)) of the same compound?
The residual activity was 97.2%.

What about the residual activity (CSNK1A1 (human)) of the same compound?
Its residual activity is 102%.

And the residual activity (DYRK3 (human))?
The residual activity was 101%.

And the residual activity (DYRK4 (human))?
Its residual activity is 97.4%.

What about the residual activity (ERBB2 (human)) of the same compound?
The residual activity was 97.3%.

What about the residual activity (ERBB4 (human)) of the same compound?
The residual activity was 103%.

What about the residual activity (FGFR2 (human)) of the same compound?
Its residual activity is 102%.

What about the residual activity (HIPK2 (human)) of the same compound?
Its residual activity is 96.5%.

What about the residual activity (JAK3 JH1 JH2 (human)) of the same compound?
Its residual activity is 102%.

What about the residual activity (LCK (human)) of the same compound?
The residual activity was 95.5%.

What about the residual activity (MAP2K1 (human)) of the same compound?
The residual activity was 84.8%.

What about the residual activity (MAP3K11 (human)) of the same compound?
The residual activity was 100%.

And the residual activity (MAP3K2 (human))?
The residual activity was 94%.

What about the residual activity (MARK4 (human)) of the same compound?
The residual activity was 106%.

What about the residual activity (MATK (human)) of the same compound?
The residual activity was 89.5%.

What about the residual activity (MELK (human)) of the same compound?
Its residual activity is 85.7%.

And the residual activity (MERTK (human))?
Its residual activity is 88.2%.

And the residual activity (NEK1 (human))?
The residual activity was 96.7%.

And the residual activity (NEK9 (human))?
The residual activity was 94.2%.

What about the residual activity (NTRK1 (human)) of the same compound?
Its residual activity is 90.7%.

And the residual activity (PAK1 (human))?
Its residual activity is 92.8%.

What about the residual activity (PHKG2 (human)) of the same compound?
The residual activity was 84.2%.

What about the residual activity (PKN2 (human)) of the same compound?
The residual activity was 96.3%.

What about the residual activity (PRKCZ (human)) of the same compound?
The residual activity was 103%.

And the residual activity (PTK2B (human))?
The residual activity was 95.5%.

And the residual activity (PTK6 (human))?
The residual activity was 76.9%.

And the residual activity (RIPK2 (human))?
Its residual activity is 85.4%.

What about the residual activity (ROCK1 (human)) of the same compound?
The residual activity was 101%.

And the residual activity (RPS6KA6 KD1 KD2 (human))?
Its residual activity is 91.2%.

What about the residual activity (SGK3 (human)) of the same compound?
Its residual activity is 102%.

And the residual activity (SRMS (human))?
The residual activity was 84.2%.

And the residual activity (STK3 (human))?
Its residual activity is 89.1%.

What about the residual activity (TEK (human)) of the same compound?
The residual activity was 97.1%.

What about the residual activity (TGFBR2 (human)) of the same compound?
Its residual activity is 95.6%.

What about the residual activity (TXK (human)) of the same compound?
Its residual activity is 99.6%.

And the residual activity (WNK3 (human))?
The residual activity was 101%.

What does the source list for `O=c1cc(N2CCNCC2)oc2c(-c3ccccc3)cccc12`?
residual activity (ACVR1 (human)): 90.3%; residual activity (ACVR1B (human)): 105%; residual activity (AKT3 (human)): 102%; residual activity (AURKB (human)): 97.8%; residual activity (CAMK1 (human)): 99.2%; residual activity (CAMKK2 (human)): 83.7%; residual activity (CSF1R (human)): 108%; residual activity (CSNK1A1 (human)): 104%; residual activity (DYRK3 (human)): 97.8%; residual activity (DYRK4 (human)): 94.7%; residual activity (ERBB2 (human)): 95.5%; residual activity (ERBB4 (human)): 104%; residual activity (FGFR2 (human)): 98.9%; residual activity (HIPK2 (human)): 108%; residual activity (JAK3 JH1 JH2 (human)): 96.9%; residual activity (LCK (human)): 104%; residual activity (MAP2K1 (human)): 103%; residual activity (MAP3K11 (human)): 97.8%; residual activity (MAP3K2 (human)): 105%; residual activity (MARK4 (human)): 92.8%; residual activity (MATK (human)): 84.5%; residual activity (MELK (human)): 94.5%; residual activity (MERTK (human)): 98.3%; residual activity (NEK1 (human)): 82.8%; residual activity (NEK9 (human)): 102%; residual activity (NTRK1 (human)): 96.4%; residual activity (PAK1 (human)): 99%; residual activity (PHKG2 (human)): 96.9%; residual activity (PKN2 (human)): 99.5%; residual activity (PRKCZ (human)): 116%; residual activity (PTK2B (human)): 88.3%; residual activity (PTK6 (human)): 99.2%; residual activity (RIPK2 (human)): 82.9%; residual activity (ROCK1 (human)): 104%; residual activity (RPS6KA6 KD1 KD2 (human)): 99%; residual activity (SGK3 (human)): 111%; residual activity (SRMS (human)): 104%; residual activity (STK3 (human)): 102%; residual activity (TEK (human)): 95%; residual activity (TGFBR2 (human)): 88.4%; residual activity (TXK (human)): 95.4%; residual activity (WNK3 (human)): 93.4%
